In patent US10519111B2, “UV absorbing compounds, compositions comprising same and uses thereof” (CORAL SUNSCREEN PTY LTD, priority 2013, dated 2019):

Tests used:
[1] = UV absorption properties (λmax, molar extinction coefficient ε, efficiency E 1%, 1 cm); format: physicochemical
[2] = Critical wavelength (λcrit), approximate in-house measurement; format: physicochemical
From the text: As the precise test for critical wavelength was unable to be replicated exactly by the inventors due to the need for specialist equipment and a specific calibration of the spectrophotometer, these values are only approximate to a degree. […] This represents a highly useful result and so, compounds based around this benzoyl substitution pattern shown, are especially preferred.

[3] = Table 4, N-aryl enamines with isocyanates
[4] = Table 5, acylation of N-t-Bu enamine
[5] = Table 5, values in order of the λmax values
[6] = Table 5, values in order of the λmax values, in M-1 cm-1
[7] = Table 6B, N-tert-butyl compounds
[8] = Table 7, values in order of the λmax values

Cc1ccc(N2C=C(C(=O)Nc3ccc(C)c(NC(=O)C4=CN(C(C)(C)C)CCC4(C)C)c3)C(C)(C)CC2)cc1 [drawing 67]
Ε (1%, 1 cm) ([1]; Table 4): 954
λmax [1, 3]: 314 nm
ε ([1]; Table 4, in M-1 cm-1): 51743
λcrit ([2]; Table 4): 340 nm

CC1(C)CCN(c2ccc(C(C)(C)C)cc2)C=C1C(=O)Nc1ccc(NC(=O)C2=CN(c3ccc(C(C)(C)C)cc3)CCC2(C)C)cc1 [drawing 68]
Ε (1%, 1 cm) ([1]; Table 4): 1054
λmax [1, 3]: 331 nm
ε ([1]; Table 4, in M-1 cm-1): 68095
λcrit ([2]; Table 4): 354 nm

Cc1ccc(N2C=C(C(=O)Nc3ccccc3)C(C)(C)CC2)cc1 [drawing 69]
Ε (1%, 1 cm) ([1]; Table 4): 1060
λmax [1, 3]: 323 nm
ε ([1]; Table 4, in M-1 cm-1): 33948
λcrit ([2]; Table 4): 342 nm

CC1(C)CCN(c2ccc(C(C)(C)C)cc2)C=C1C(=O)Nc1ccccc1 [drawing 70]
Ε (1%, 1 cm) ([1]; Table 4): 987
λmax [1, 3]: 324 nm
ε ([1]; Table 4, in M-1 cm-1): 35759
λcrit ([2]; Table 4): 342 nm

CC1(C)CCN(C(C)(C)C)C=C1C(=O)CCCCCCCCC(=O)C1=CN(C(C)(C)C)CCC1(C)C [drawing 72]
λmax [1, 4]: 307 nm
Ε (1%, 1 cm) [1, 5]: 1095
ε [1, 6]: 54797
λcrit ([2]; Table 5): 322 nm

CC1(C)CCN(C(C)(C)C)C=C1C(=O)C1=CN(C(C)(C)C)CCC1(C)C [drawing 73]
λmax [1, 4]: 305 nm
Ε (1%, 1 cm) [1, 5]: 456
ε [1, 6]: 16425
shoulder in the λmax column ([1]; Tables 5, 10, 13B): 330 nm
λcrit ([2]; Table 5): 351 nm

CC1(C)CCN(C(C)(C)C)C=C1C(=O)COc1ccccc1 [drawing 74]
λmax [1, 4]: 313 nm
Ε (1%, 1 cm) [1, 5]: 869
ε [1, 6]: 26154
λcrit ([2]; Table 5): 329 nm

CC1(C)CCN(C(C)(C)C)C=C1C(=O)c1ccncc1 [drawing 75]
λmax [1, 4]: 316 nm
Ε (1%, 1 cm) [1, 5]: 866
ε [1, 6]: 23556
λcrit ([2]; Table 5): 354 nm

CC(C)CN1C=C(C(=O)c2ccc(N(C)C)cc2)C(C)(C)CC1 [drawing 83]
E (1%, 1 cm) ([1]; Table 6A): 544
ε ([1]; Table 6A): 17000 M⁻¹ cm⁻¹
λmax ([1]; Table 6A, N-isobutyl-C3-benzoyl compounds): 336 nm
λcrit ([2]; Table 6A): 362 nm

C=CC(=O)C1=CN(C(C)(C)C)CCC1(C)C [drawing 92]
E (1%, 1 cm) ([1]; Table 6B): 1127
λmax [1, 7]: 328 nm
ε ([1]; Table 6B, in M-1 cm-1): 24907
λcrit ([2]; Table 6B): 360 nm

CC1(C)CCN(C(C)(C)C)C=C1C(=O)/C=C/c1ccccc1 [drawing 93]
E (1%, 1 cm) ([1]; Table 6B): 781
λmax [1, 7]: 360 nm
ε ([1]; Table 6B, in M-1 cm-1): 23198
λcrit ([2]; Table 6B): 385 nm

CC1(C)CCN(C(C)(C)C)C=C1C(=O)c1ccc(Br)cc1 [drawing 94]
E (1%, 1 cm) ([1]; Table 6B): 785
λmax [1, 7]: 317 nm
ε ([1]; Table 6B, in M-1 cm-1): 27506
λcrit ([2]; Table 6B): 347 nm

CN(C)c1ccc(C(=O)C2=CN(C(C)(C)C)CCC2(C)C)cc1 [drawing 95]
E (1%, 1 cm) ([1]; Table 6B): 793
λmax [1, 7]: 333 nm
ε ([1]; Table 6B, in M-1 cm-1): 24966
λcrit ([2]; Table 6B): 361 nm

CC(C)(C)Oc1ccc(C(=O)C2=CN(C(C)(C)C)CCC2(C)C)cc1 [drawing 96]
E (1%, 1 cm) ([1]; Table 6B): 949
λmax [1, 7]: 317 nm
ε ([1]; Table 6B, in M-1 cm-1): 32556
λcrit ([2]; Table 6B): 344 nm

CC1(C)CCN(C(C)(C)C)C=C1C(=O)c1ccc(C(=O)C2=CN(C(C)(C)C)CCC2(C)C)cc1 [drawing 97]
E (1%, 1 cm) ([1]; Table 6B): 732
λmax [1, 7]: 317 nm
ε ([1]; Table 6B, in M-1 cm-1): 33982
λcrit ([2]; Table 6B): 355 nm

CC1(C)CCN(C(C)(C)C)C=C1C(=O)c1ccc(C(=O)O)cc1 [drawing 98]
E (1%, 1 cm) ([1]; Table 6B): 549
λmax [1, 7]: 317 nm
ε ([1]; Table 6B, in M-1 cm-1): 17300
λcrit ([2]; Table 6B): 353 nm

CC(C)CN1C=C(C(=O)/C=C/c2ccccc2)C(C)(C)CC1 [drawing 111]
λmax ([1]; Table 7, unsaturated compounds): 360 nm
E (1%, 1 cm) [1, 8]: 533
ε [1, 8]: 16000 M⁻¹ cm⁻¹
λcrit ([2]; Table 7): 383 nm

C=CC(=O)C1=CN(CC(C)C)CCC1(C)C [drawing 112]
λmax ([1]; Table 7, unsaturated compounds): 330 nm
E (1%, 1 cm) [1, 8]: 915
ε [1, 8]: 20500 M⁻¹ cm⁻¹
λcrit ([2]; Table 7): 363 nm

CC(C)CN1C=C(C(=O)/C=C/c2ccc(C(F)(F)F)cc2)C(C)(C)CC1 [drawing 113]
λmax ([1]; Table 7, unsaturated compounds): 369 nm
E (1%, 1 cm) [1, 8]: 463
ε [1, 8]: 17000 M⁻¹ cm⁻¹
λcrit ([2]; Table 7): 388 nm

COc1ccc(/C=C/C(=O)C2=CN(CC(C)C)CCC2(C)C)cc1 [drawing 114]
λmax ([1]; Table 7, unsaturated compounds): 364 nm
E (1%, 1 cm) [1, 8]: 493
ε [1, 8]: 16150 M⁻¹ cm⁻¹
λcrit ([2]; Table 7): 386 nm

C=C/C=C/C(=O)C1=CN(CC(C)C)CCC1(C)C [drawing 117]
λmax ([1]; Table 7, unsaturated compounds): 352 nm
E (1%, 1 cm) [1, 8]: 730
ε [1, 8]: 18000 M⁻¹ cm⁻¹
λcrit ([2]; Table 7): 381 nm

CCC(=O)C1=CN(c2ccccc2)CCC1(C)C [drawing 122]
E (1%, 1 cm) ([1]; Table 8a): 947
ε ([1]; Table 8a): 23000 M⁻¹ cm⁻¹
λmax ([1]; Table 8a, N-phenyl compounds): 321 nm
λcrit ([2]; Table 8a): 349 nm
